The text below walks through data of publication PMC10620989, “Going beyond Binary: Rapid Identification of Protein–Protein Interaction Modulators Using a Multifragment Kinetic Target-Guided Synthesis Approach” (Journal of Medicinal Chemistry, 2023).

The structures appear in SMILES notation. Read-outs that look alike come from different tables or passages of the source.

Test [1] deals with Bcl-XL (Homo sapiens, UniProt Q07817). In words: Multifragment KTGS incubation with Bcl-XL (9 TA x 9 SZ in one well), LC-MS/MS. Conditions: 81 combinations in one well, 5 μM Bcl-XL, phosphate buffer pH 7.4, 8 h.
The target in test [2] is GST-tagged mouse Mcl-1-(152–309) (Mus musculus, UniProt P97287). In words: Fluorescence polarization competitive binding assay, GST-Mcl-1 / FITC-Bim-BH3. Conditions: for inhibition at 50 µM: compound at 50 µM. On the set-up: selectivity index: reference not given here. A general note: In fluorescence polarisation assays a small probe gives low polarisation when free and higher when bound to something large.

For test [3], the target named is T1, GST-Bcl-XL (Homo sapiens, UniProt Q07817). In words: Fluorescence polarization assay, GST-Bcl-XL / fluorescein-labeled Bak BH3 peptide. In kind it is binding. The conditions noted are these: FP, GST-Bcl-XL and fluorescein-labeled Bak BH3 peptide; ND = not detected.
Test [4] has as its target T2, Mcl-1 (Mus musculus, UniProt P97287). In words: Multifragment KTGS screen against Mcl-1 (5 TA x 38 SZ per well), LC-MS/MS. Conditions: multifragment KTGS, 190 combinations per well, 10 μM Mcl-1, 20 μM each fragment, pH 7.4, 37 °C, 10 h; peak area with protein / without protein.
Test [5] has as its target T2, Mcl-1. Kind of test: Binary KTGS incubation (1 TA x 1 SZ) with Mcl-1, LC-MS/MS. The conditions noted are these: binary incubation mixtures with and without Mcl-1.
In test [6] the target is T1, GST-Bcl-XL. On the set-up: method as in PMID 21892513. The conditions noted are these: 50 μM; ref 15b; cited from earlier work.
The mark [7] stands for this setting: FP, GST-Mcl-1 and fluorescein-labeled Bim BH3 peptide, read-out: IC50 on Mcl-1.

T1 sequence (Q07817 whole entry, the tested form may be a part): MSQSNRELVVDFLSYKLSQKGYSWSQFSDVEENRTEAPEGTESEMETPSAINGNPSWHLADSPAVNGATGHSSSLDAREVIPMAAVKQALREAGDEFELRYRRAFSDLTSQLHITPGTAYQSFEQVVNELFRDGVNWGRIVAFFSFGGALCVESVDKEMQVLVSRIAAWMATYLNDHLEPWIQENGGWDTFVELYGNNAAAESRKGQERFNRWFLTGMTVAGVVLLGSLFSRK
Chain of Bcl-XL (Q07817 whole entry, species assumed, the tested form may be a part): as the sequence (Q07817 whole entry, the tested form may be a part) above
T2 sequence (P97287 whole entry, the tested form may be a part): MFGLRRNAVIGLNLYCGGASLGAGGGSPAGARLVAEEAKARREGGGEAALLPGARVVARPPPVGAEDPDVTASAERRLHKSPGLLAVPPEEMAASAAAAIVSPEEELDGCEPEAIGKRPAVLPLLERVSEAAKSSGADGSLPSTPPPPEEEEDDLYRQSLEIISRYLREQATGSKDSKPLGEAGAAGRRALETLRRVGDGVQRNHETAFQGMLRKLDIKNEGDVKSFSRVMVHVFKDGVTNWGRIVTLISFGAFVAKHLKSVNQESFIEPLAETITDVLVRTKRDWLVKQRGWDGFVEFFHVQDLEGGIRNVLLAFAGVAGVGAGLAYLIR
Chain of GST-tagged mouse Mcl-1-(152–309) (P97287 152-309): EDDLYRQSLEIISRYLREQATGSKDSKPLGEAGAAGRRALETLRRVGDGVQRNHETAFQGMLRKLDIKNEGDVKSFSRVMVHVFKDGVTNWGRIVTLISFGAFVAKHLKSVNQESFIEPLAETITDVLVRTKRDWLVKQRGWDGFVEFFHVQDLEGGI

Regarding `CC1(C)CCN(c2ccc(C(=O)NS(=O)(=O)c3ccc4ccc(S(=O)(=O)NCCSc5ccccc5)cc4c3)cc2)CC1` [SZ7TA2], in test [1], the Amplification coefficient came out at 15.2.

As to `[N-]=[N+]=NS(=O)(=O)c1ccc(CN(CCSc2ccccc2)Cc2ccc(S(=O)(=O)NC(=O)c3ccccc3)cc2)cc1` [SZ9TA1, O=C(NS(C1=CC=C(CN(CC2=CC=C(S(=O)(N=[N+]=[N-])=O)C=C2)CCSC3=CC=CC=C3)C=C1)(=O)=O)C4=CC=CC=C4], the IC50 – broadly, the concentration that gives 50% inhibition – in test [2] (setting [7]) was determined as 19.8 µM; in test [3], 28.8 µM. Also, the inhibition – broadly, the relative decrease from the control value, in per cent – at 50 µM in test [2] (FP) amounted to 97.3%. Further, the Amplification coefficient in test [1] was 7.3. Also, the “Amplification coefficient 5TA x 38SZ” value in test [4] worked out at 14. The “Amplification coefficient 1TA x 1SZ” value in test [5] was 4.

Consider `O=C(NS(=O)(=O)c1ccc(CN(CCSc2ccccc2)Cc2c(F)cccc2Cl)cc1)c1ccc(CCc2ccccn2)cc1` [SZ15TA17, O=C(NS(C1=CC=C(CN(CCSC2=CC=CC=C2)CC3=C(F)C=CC=C3Cl)C=C1)(=O)=O)C4=CC=C(CCC5=NC=CC=C5)C=C4], for which the inhibition at 50 µM in test [2] (FP) stood at 89.5%. In addition, the IC50 was 20.2 µM in test [2] (IC50 on Mcl-1) and 55.9 µM in test [3]. For the same compound, the “Amplification coefficient 5TA x 38SZ” value in test [4] is listed as 7. For the same compound, the “Amplification coefficient 1TA x 1SZ” value in test [5] is given as 7.

On to `O=C(Cn1c2ccccc2c2ccccc21)NS(=O)(=O)c1ccc(CN(CCSc2ccccc2)Cc2ccc3c(c2)OCO3)cc1` [SZ31TA15, O=C(NS(C1=CC=C(CN(CC2=CC(OCO3)=C3C=C2)CCSC4=CC=CC=C4)C=C1)(=O)=O)CN5C(C=CC=C6)=C6C7=C5C=CC=C7], for which the IC50 in test [2] (setting [7]) came out at 14 µM. At 50 µM the inhibition in test [2] (FP) was 80.7%. The “IC50 on Bcl-XL” value in test [3] is recorded as “below the detectable threshold”. Also, the “Amplification coefficient 5TA x 38SZ” value in test [4] is 72. For the same compound, in test [5], the “Amplification coefficient 1TA x 1SZ” value is reported as 6.

`COc1cccc(CN(CCSc2ccccc2)Cc2ccc(S(=O)(=O)NC(=O)c3sc(-c4ccccc4)nc3C)cc2)c1` [SZ17TA3, O=C(NS(C1=CC=C(CN(CC2=CC(OC)=CC=C2)CCSC3=CC=CC=C3)C=C1)(=O)=O)C4=C(C)N=C(C5=CC=CC=C5)S4]: the IC50 in test [2] (setting [7]) is 8.6 µM; in test [3] it was 50 µM. For the same compound, the inhibition at 50 µM in test [2] (FP) is over 99%. Also, in test [4], the “Amplification coefficient 5TA x 38SZ” value is 25. Besides, in test [5], the “Amplification coefficient 1TA x 1SZ” value came out at 12.

Turning to `CC1(C)CCN(c2ccc(C(=O)NS(=O)(=O)c3ccc(NCCSc4ccccc4)c([N+](=O)[O-])c3)cc2)CC1` [SZ4TA2, reference compound], the Amplification coefficient in test [1] turned out to be 15.0.

As to `[N-]=[N+]=NS(=O)(=O)c1ccc(CN(CCSc2ccccc2)Cc2ccc(S(=O)(=O)NC(=O)c3cccc4ccccc34)cc2)cc1` [SZ9TA7, O=C(NS(C1=CC=C(CN(CC2=CC=C(S(=O)(N=[N+]=[N-])=O)C=C2)CCSC3=CC=CC=C3)C=C1)(=O)=O)C4=C(C=CC=C5)C5=CC=C4], the IC50 in test [2] (setting [7]) was 8.2 µM; in test [3], 66.3 µM. The inhibition at 50 µM in test [2] (FP) is 94.1%. Also, in test [1], the Amplification coefficient is 7.1. Further, the “inhibition of the Bcl-XL/Bak BH3 interaction” value in test [6] is 45%. Also, the “Amplification coefficient 5TA x 38SZ” value in test [4] amounted to 23. In addition, the “Amplification coefficient 1TA x 1SZ” value in test [5] came to 6.

As for `O=C(NS(=O)(=O)c1ccc(CN(CCSc2ccccc2)Cc2c(F)cccc2Cl)cc1)c1ccccc1` [SZ15TA1, O=C(NS(C1=CC=C(CN(CCSC2=CC=CC=C2)CC3=C(F)C=CC=C3Cl)C=C1)(=O)=O)C4=CC=CC=C4], the inhibition at 50 µM in test [2] (FP) was determined as 92.5%. In addition, the results for the IC50 in test [2] (IC50 on Mcl-1) and in test [3] were 9.7 µM and 29.1 µM, respectively. Further, the “Amplification coefficient 5TA x 38SZ” value in test [4] amounted to 13. Further, the “Amplification coefficient 1TA x 1SZ” value in test [5] came to 5.

For `COc1cc(OC)cc(C(=O)NS(=O)(=O)c2ccc(CN(CCSc3ccccc3)Cc3ccc(S(=O)(=O)N=[N+]=[N-])cc3)cc2)c1` [SZ9TA5, O=C(NS(C1=CC=C(CN(CC2=CC=C(S(=O)(N=[N+]=[N-])=O)C=C2)CCSC3=CC=CC=C3)C=C1)(=O)=O)C4=CC(OC)=CC(OC)=C4], in test [2] (setting [7]), the 50% inhibitory concentration (IC50) was found to be 8.1 µM. For the same compound, the inhibition at 50 µM in test [2] (FP) was 99%. The Amplification coefficient in test [1] came out at 7.6. For the same compound, the “Amplification coefficient 5TA x 38SZ” value in test [4] turned out to be 8. Further, in test [5], the “Amplification coefficient 1TA x 1SZ” value was 4.5.

As for `O=C(NS(=O)(=O)c1ccc(NCCSc2ccccc2)c([N+](=O)[O-])c1)c1ccc2c(ccn2Cc2ccc(C(F)(F)F)cc2C(F)(F)F)c1` [SZ4TA30, O=C(NS(C1=CC=C(NCCSC2=CC=CC=C2)C([N+]([O-])=O)=C1)(=O)=O)C3=CC(C=CN4CC5=CC=C(C(F)(F)F)C=C5C(F)(F)F)=C4C=C3], the IC50 in test [2] (setting [7]) was 26.1 µM; in test [3], over 50 µM. The compound further yielded an inhibition at 50 µM in test [2] (FP) of 80.7%. Besides, the “Amplification coefficient 5TA x 38SZ” value in test [4] is 20. Also, the “Amplification coefficient 1TA x 1SZ” value in test [5] is on record as 4.

Regarding `COc1ccc(Cc2ccc(C(=O)NS(=O)(=O)c3ccc(CN(CCSc4ccccc4)Cc4ccc5c(c4)OCO5)cc3)cc2)c(OC)c1OC` [SZ31TA24, O=C(NS(C1=CC=C(CN(CC2=CC(OCO3)=C3C=C2)CCSC4=CC=CC=C4)C=C1)(=O)=O)C5=CC=C(CC6=C(OC)C(OC)=C(OC)C=C6)C=C5], the IC50 in test [2] (setting [7]) turned out to be 20 µM. Testing at 50 µM in test [2] (FP) gave an inhibition of 82.4%. Moreover, the “IC50 on Bcl-XL” value in test [3] is “below the detectable threshold”. For the same compound, in test [4], the “Amplification coefficient 5TA x 38SZ” value came to 7. Moreover, the “Amplification coefficient 1TA x 1SZ” value in test [5] is 15.

In test [2], `COc1cc(OC)cc(C(=O)NS(=O)(=O)c2ccc(CN(CCSc3ccccc3)Cc3c(F)cccc3Cl)cc2)c1` [SZ15TA5, O=C(NS(C1=CC=C(CN(CCSC2=CC=CC=C2)CC3=C(F)C=CC=C3Cl)C=C1)(=O)=O)C4=CC(OC)=CC(OC)=C4] returned a selectivity index of 4.0. The inhibition at 50 µM in test [2] (FP) was over 99%. Besides, the values for the IC50 in test [2] (IC50 on Mcl-1) and in test [3] were 13.4 µM and 53 µM, respectively. The “Amplification coefficient 5TA x 38SZ” value in test [4] was 9. In addition, in test [5], the “Amplification coefficient 1TA x 1SZ” value is reported as 4.

`O=C(NS(=O)(=O)c1ccc(CNc2cccc([N+](=O)[O-])c2)cc1)c1ccc(CN2C(=O)C(c3ccc(F)cc3F)=C(c3ccc(F)cc3F)C2=O)cc1` [SZ12TA42, O=C(NS(C1=CC=C(CNC2=CC=CC([N+]([O-])=O)=C2)C=C1)(=O)=O)C3=CC=C(CN4C(C(C5=C(F)C=C(F)C=C5)=C(C6=CC=C(F)C=C6F)C4=O)=O)C=C3]: the IC50 in test [2] (setting [7]) stood at 13.6 µM. 50 µM produced 89.4% inhibition in test [2] (FP). In addition, in test [3], the “IC50 on Bcl-XL” value is “below the detectable threshold”. Also, the “Amplification coefficient 5TA x 38SZ” value in test [4] is given as 9. Moreover, the “Amplification coefficient 1TA x 1SZ” value in test [5] amounted to 6.

Compound `Cc1nc(-c2ccccc2)sc1C(=O)NS(=O)(=O)c1ccc(CN(CCSc2ccccc2)Cc2c(F)cccc2Cl)cc1` [SZ15TA3, O=C(NS(C1=CC=C(CN(CCSC2=CC=CC=C2)CC3=C(F)C=CC=C3Cl)C=C1)(=O)=O)C4=C(C)N=C(C5=CC=CC=C5)S4] came in with an inhibition at 50 µM in test [2] (FP) of 95.9%. Further, the IC50 in test [2] (IC50 on Mcl-1) was determined as 5.8 µM; in test [3], 36.4 µM. In addition, in test [4], the “Amplification coefficient 5TA x 38SZ” value came to 10. In test [5], the “Amplification coefficient 1TA x 1SZ” value is 5.
